Among the data in PubChem BioAssay AID1259407 (Chemical Carcinogenesis Research Information System (CCRIS), 2018) are mutagenic call values, retold here.

This series deals with CCRIS mutagenicity, Ames/micronucleus/aberration tests. The experiment in a line: CCRIS mutagenicity studies.
Setting [1] is: Test System: AMES SALMONELLA TYPHIMURIUM, Strain/Indicator: TA98, Metabolic Activation: NONE, Method: STANDARD PLATE.
Setting [2] is: Test System: AMES SALMONELLA TYPHIMURIUM, Strain/Indicator: TA100, Metabolic Activation: NONE, Method: STANDARD PLATE.
Where [3] appears, read: Test System: MOUSE LYMPHOMA, Strain/Indicator: L5178Y (TK+/TK-), Metabolic Activation: NONE, Method: SUSPENSION/PLATE.

Active and inactive are the calls of the source. The rule behind the calls is not given here.

On to `CCCBr`, for which the mutagenic call is “inactive; negative” (End Point: In vitro micronucleus, Test System: Chinese Hamster Ovary (CHO-WBL) cells, Metabolic Activation: None); “inactive; negative” (Test System: AMES SALMONELLA TYPHIMURIUM, Strain/Indicator: TA98, Metabolic Activation: NONE, Method: PREINCUBATION); “inactive; negative” (Test System: AMES SALMONELLA TYPHIMURIUM, Strain/Indicator: TA98, Metabolic Activation: RAT LIVER S-9, PHENOBARBITAL AND BETA-NAPHTHOFLAVONE, Method: PREINCUBATION); “inactive; negative” (Test System: AMES SALMONELLA TYPHIMURIUM, Strain/Indicator: TA100, Metabolic Activation: NONE, Method: PREINCUBATION); “inactive; negative” (Test System: AMES SALMONELLA TYPHIMURIUM, Strain/Indicator: TA100, Metabolic Activation: RAT LIVER S-9, PHENOBARBITAL AND BETA-NAPHTHOFLAVONE, Method: PREINCUBATION); “inactive; negative” (Test System: AMES SALMONELLA TYPHIMURIUM, Strain/Indicator: TA102, Metabolic Activation: NONE, Method: PREINCUBATION). The mutagenic call (Test System: AMES SALMONELLA TYPHIMURIUM, Strain/Indicator: TA102, Metabolic Activation: RAT LIVER S-9, PHENOBARBITAL AND BETA-NAPHTHOFLAVONE, Method: PREINCUBATION) was “inactive; negative”; the mutagenic call (Test System: AMES SALMONELLA TYPHIMURIUM, Strain/Indicator: TA104, Metabolic Activation: NONE, Method: PREINCUBATION) is “inactive; negative”; the mutagenic call (Test System: AMES SALMONELLA TYPHIMURIUM, Strain/Indicator: TA104, Metabolic Activation: RAT LIVER S-9, PHENOBARBITAL AND BETA-NAPHTHOFLAVONE, Method: PREINCUBATION) was “inactive; negative”; the mutagenic call (Test System: AMES SALMONELLA TYPHIMURIUM, Strain/Indicator: TA1535, Metabolic Activation: NONE, Method: PREINCUBATION) was “inactive; negative”; the mutagenic call (Test System: AMES SALMONELLA TYPHIMURIUM, Strain/Indicator: TA1535, Metabolic Activation: RAT LIVER S-9, PHENOBARBITAL AND BETA-NAPHTHOFLAVONE, Method: PREINCUBATION) was “inactive; negative”; the mutagenic call (Test System: AMES SALMONELLA TYPHIMURIUM, Strain/Indicator: TA1537, Metabolic Activation: NONE, Method: PREINCUBATION) is “inactive; negative”. In addition, the mutagenic call is “inactive; negative” (Test System: AMES SALMONELLA TYPHIMURIUM, Strain/Indicator: TA1537, Metabolic Activation: RAT LIVER S-9, PHENOBARBITAL AND BETA-NAPHTHOFLAVONE, Method: PREINCUBATION); “inactive; negative” (Test System: E.COLI, Strain/Indicator: WP2UVRA/PKM101, Metabolic Activation: NONE, Method: PREINCUBATION); “inactive; negative” (Test System: E.COLI, Strain/Indicator: WP2UVRA/PKM101, Metabolic Activation: RAT LIVER S-9, PHENOBARBITAL AND BETA-NAPHTHOFLAVONE, Method: PREINCUBATION); “inactive; negative” (Test System: E.COLI, Strain/Indicator: WP2UVRA, Metabolic Activation: NONE, Method: PREINCUBATION); “inactive; negative” (Test System: E.COLI, Strain/Indicator: WP2UVRA, Metabolic Activation: RAT LIVER S-9, PHENOBARBITAL AND BETA-NAPHTHOFLAVONE, Method: PREINCUBATION).

For `CCN(CC)c1ccc2nc3ccc(=[N+](CC)CC)cc-3oc2c1`, the mutagenic call (Test System: AMES SALMONELLA TYPHIMURIUM, Strain/Indicator: TA98, Metabolic Activation: HAMSTER, LIVER, S-9, AROCLOR 1254 (10%), Method: STANDARD PLATE) was “inactive; negative”; the mutagenic call under setting [1] is “active; positive”; the mutagenic call (Test System: AMES SALMONELLA TYPHIMURIUM, Strain/Indicator: TA98, Metabolic Activation: RAT, LIVER, S-9, AROCLOR 1254 (10%), Method: STANDARD PLATE) is “inactive; negative”; the mutagenic call (Test System: AMES SALMONELLA TYPHIMURIUM, Strain/Indicator: TA100, Metabolic Activation: HAMSTER, LIVER, S-9, AROCLOR 1254 (10%), Method: STANDARD PLATE) was “inactive; negative”; the mutagenic call under setting [2] was “inactive; negative”; the mutagenic call (Test System: AMES SALMONELLA TYPHIMURIUM, Strain/Indicator: TA100, Metabolic Activation: RAT, LIVER, S-9, AROCLOR 1254 (10%), Method: STANDARD PLATE) is “inactive; negative”. Moreover, the mutagenic call is “inactive; negative” (Test System: Ames Salmonella typhimurium, Strain/Indicator: TA98, Metabolic Activation: None, Method: Preincubation); “inactive; negative” (Test System: Ames Salmonella typhimurium, Strain/Indicator: TA98, Metabolic Activation: Rat, Liver, S-9, Aroclor 1254, Method: Preincubation); “inactive; negative” (Test System: Ames Salmonella typhimurium, Strain/Indicator: TA100, Metabolic Activation: None, Method: Preincubation); “inactive; negative” (Test System: Ames Salmonella typhimurium, Strain/Indicator: TA100, Metabolic Activation: Rat, Liver, S-9, Aroclor 1254, Method: Preincubation); “inactive; negative” (Test System: Ames Salmonella typhimurium, Strain/Indicator: TA102, Metabolic Activation: None, Method: Preincubation); “inactive; negative” (Test System: Ames Salmonella typhimurium, Strain/Indicator: TA102, Metabolic Activation: Rat, Liver, S-9, Aroclor 1254, Method: Preincubation). The mutagenic call reads like this: (Test System: Ames Salmonella typhimurium, Strain/Indicator: TA1535, Metabolic Activation: None, Method: Preincubation) “inactive; negative”; (Test System: Ames Salmonella typhimurium, Strain/Indicator: TA1535, Metabolic Activation: Rat, Liver, S-9, Aroclor 1254, Method: Preincubation) “inactive; negative”; under setting [3], “active; positive. reevaluation of results: positive”; (Test System: MOUSE LYMPHOMA, Strain/Indicator: L5178Y (TK+/TK-), Metabolic Activation: RAT, LIVER, S-9, AROCLOR 1254, Method: SUSPENSION/PLATE) “active; positive. reevaluation of results: positive”.

On to `Cl[Si](Cl)(Cl)Cl`, for which the mutagenic call reads like this: under setting [1], “inactive; negative”; (Test System: AMES SALMONELLA TYPHIMURIUM, Strain/Indicator: TA98, Metabolic Activation: RAT LIVER S-9, AROCLOR 1254, Method: STANDARD PLATE) “inactive; negative”; under setting [2], “inactive; negative”; (Test System: AMES SALMONELLA TYPHIMURIUM, Strain/Indicator: TA100, Metabolic Activation: RAT LIVER S-9, AROCLOR 1254, Method: STANDARD PLATE) “inactive; negative”; (Test System: AMES SALMONELLA TYPHIMURIUM, Strain/Indicator: TA1535, Metabolic Activation: NONE, Method: STANDARD PLATE) “inactive; negative”; (Test System: AMES SALMONELLA TYPHIMURIUM, Strain/Indicator: TA1535, Metabolic Activation: RAT LIVER S-9, AROCLOR 1254, Method: STANDARD PLATE) “inactive; negative”. The mutagenic call runs as follows: (Test System: AMES SALMONELLA TYPHIMURIUM, Strain/Indicator: TA1537, Metabolic Activation: NONE, Method: STANDARD PLATE) “inactive; negative”; (Test System: AMES SALMONELLA TYPHIMURIUM, Strain/Indicator: TA1537, Metabolic Activation: RAT LIVER S-9, AROCLOR 1254, Method: STANDARD PLATE) “inactive; negative”; (Test System: AMES SALMONELLA TYPHIMURIUM, Strain/Indicator: TA1538, Metabolic Activation: NONE, Method: STANDARD PLATE) “inactive; negative”; (Test System: AMES SALMONELLA TYPHIMURIUM, Strain/Indicator: TA1538, Metabolic Activation: RAT LIVER S-9, AROCLOR 1254, Method: STANDARD PLATE) “inactive; negative”; (Test System: E. COLI, Strain/Indicator: P3078 POLA, Metabolic Activation: NONE, Method: SPOT TEST) “inactive; negative”; (Test System: E. COLI, Strain/Indicator: P3078 POLA, Metabolic Activation: RAT LIVER S-9, AROCLOR 1254, Method: SPOT TEST) “inactive; negative”. Besides, the mutagenic call is “inactive; negative” (Test System: E. COLI, Strain/Indicator: W3110, Metabolic Activation: NONE, Method: SPOT TEST); “inactive; negative” (Test System: E. COLI, Strain/Indicator: W3110, Metabolic Activation: RAT LIVER S-9, AROCLOR 1254, Method: SPOT TEST); “inactive; negative” under setting [3]; “inactive; negative” (Test System: MOUSE LYMPHOMA, Strain/Indicator: L5178Y (TK+/TK-), Metabolic Activation: RAT, LIVER, S-9, Method: SUSPENSION/PLATE).
